Conditions: rat, in vivo
Method: The animals were then housed in metabolic cages and the feces were collected every three hours for a period of four days. At given time intervals, the rats were X-rayed, and the distribution of the microspheres in the stomach and in the intestine was followed. The collected feces were also X-rayed in order to monitor the total transit time of the microspheres through the GI tract.
Tests were conducted in areas of distinct pH and physiology: the stomach (low pH range), and the intestine (basic environment, pH ranging from 5-7, in the proximal to distal regions, respectively), FIGS. 6a, 6b, and 6c.

alginate
retention time in the intestine, ranking: longest retention time from the group of hydrogels
